According to publication PMC12049818, “Identification of NUV-244 as a PNPLA3 I148M degrading small molecule” (iScience, 2025):
Like-named read-outs stand apart in the source and are kept apart here.

Experiments:
[1] = biological target: T1, PNPLA3 I148M (Homo sapiens, UniProt Q9NST1, I148M); assay: nanoDSF thermal shift, PNPLA3 I148M protein; type: binding; conditions: ligand 25 μM
T1 sequence (Q9NST1 1-481 I148M): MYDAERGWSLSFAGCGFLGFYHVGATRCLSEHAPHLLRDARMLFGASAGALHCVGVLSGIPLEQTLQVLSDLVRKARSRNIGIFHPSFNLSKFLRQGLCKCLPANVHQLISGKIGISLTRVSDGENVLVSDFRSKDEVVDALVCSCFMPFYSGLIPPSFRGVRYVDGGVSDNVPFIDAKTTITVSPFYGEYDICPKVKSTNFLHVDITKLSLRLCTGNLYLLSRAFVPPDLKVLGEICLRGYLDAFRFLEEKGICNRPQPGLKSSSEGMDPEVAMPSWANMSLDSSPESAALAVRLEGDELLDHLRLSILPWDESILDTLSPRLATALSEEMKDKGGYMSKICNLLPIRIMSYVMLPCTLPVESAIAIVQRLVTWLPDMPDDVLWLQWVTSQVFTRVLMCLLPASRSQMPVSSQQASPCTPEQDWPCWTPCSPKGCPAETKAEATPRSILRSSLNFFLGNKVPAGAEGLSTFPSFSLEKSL
Description: (§1) To investigate the mode of action of NUV-244, we evaluated its direct binding to the PNPLA3 I148M protein using nano differential scanning fluorimetry (nanoDSF). In this assay, compounds that bind to a target protein can lead to thermal stabilization, preventing protein denaturation, which is reflected in a shift of the protein melting curve.
(§2) Full-length wild-type PNPLA3 (Q9NST1), mutant PNPLA3 (I148M), and PNPLA2 (Q96AD5) were cloned into the pVL1393 vector with an N-terminal Flag-Tag. Proteins were expressed in SF9 cells infected at a multiplicity of infection (MOI) of 1 for 72 hours. Protein purification was performed using a two-step process. The first step involved affinity purification using M2 anti-Flag agarose beads. This was followed by gel filtration chromatography using a Superdex 200 column. Thermal melting experiments were carried out using a Prometheus NT.48 instrument (NanoTemper Technologies). Proteins were prepared in 20 mM Tris-HCl pH 7.4, 100 mM NaCl, 5 % Glycerol, 2 mM DTT and 0.2 mg/mL was used as a final concentration in 50 μL volume. For binding experiments, ligands were added to the mixture at a final concentration of 25 μM, DMSO was used as control. […] The intrinsic protein fluorescence at 330 and 350 nm was recorded. Data were analysed using Prometheus NT.48 software. Thermal shifts (ΔTm) were calculated, and Z-scores greater than 6 indicated robust stabilization. […]

[2] = biological target: T2, PNPLA2 (Homo sapiens, UniProt Q96AD5); assay: nanoDSF thermal shift, PNPLA2 protein; type: binding; conditions: ligand 25 μM
T2 sequence (Q96AD5 1-504): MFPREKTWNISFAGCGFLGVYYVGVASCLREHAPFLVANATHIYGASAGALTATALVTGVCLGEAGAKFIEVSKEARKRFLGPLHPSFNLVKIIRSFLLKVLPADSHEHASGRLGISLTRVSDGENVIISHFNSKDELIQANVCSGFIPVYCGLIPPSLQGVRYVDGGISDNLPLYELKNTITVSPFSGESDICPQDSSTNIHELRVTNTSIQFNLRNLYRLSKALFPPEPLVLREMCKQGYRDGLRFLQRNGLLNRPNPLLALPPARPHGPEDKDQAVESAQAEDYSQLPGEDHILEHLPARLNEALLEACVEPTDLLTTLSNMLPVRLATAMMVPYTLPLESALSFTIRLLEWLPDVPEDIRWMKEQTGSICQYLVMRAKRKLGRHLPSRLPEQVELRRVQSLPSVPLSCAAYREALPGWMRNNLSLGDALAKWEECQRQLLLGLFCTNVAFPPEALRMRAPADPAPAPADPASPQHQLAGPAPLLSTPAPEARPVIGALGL
Description: as §1, §2

[3] = test system: Hep3B cells; assay: Incucyte growth curves, Hep3B; type: cell-based, human; conditions: 1μM or 5μM; compared to DMSO
Protocol: Huh7, Huh7 PNPLA3 I148M, Huh7 PNPLA3, Hep3b and LX-2 cells were seeded at a concentration of 1000 cells/well in 60 μl of growth medium on 384-well microtiter plates (Revvity, Waltham, MA, USA, PhenoPlate 384-well microplate, #6057308) and stored in a 37°C incubator with 5% CO2 and 95% humidity overnight. Next day cells were treated with DMSO as control (1% final concentration) or compound (1μM or 5μM final concentration) and cell density was recorded in the Incucyte® life cell imager (Sartorius, Göttingen, Germany) every 4 hours over a period of 5 days. Growth curves were generated by monitoring confluence over time. Proliferative capacity of PNPLA3 I148M-expressing cells was compared to control cells, and the restoration of proliferative fitness was analyzed.

[4] = biological target: T2, PNPLA2; assay: Huh7 PNPLA2 immunofluorescence counter assay (PNPLA2 on lipid droplets); type: cell-based; parameters: immunofluorescence against endogenous PNPLA2 on lipid droplets in Huh7 cells; endogenous in cells; host or cells: Huh7; conditions: for EC50: read-out: EC50 Huh7, PNPLA2 IF
Protocol: These efforts led to the identification of NUV-244, a thiazolecarboxamide (Figure 2A).
Cells were fixed with 4% paraformaldehyde for 15 minutes at room temperature. Cells were blocked with 0.2 M glycine, 0.1 mg/mL saponin, and 30 mg/mL bovine serum albumin (BSA) (all Sigma Aldrich) in PBS for 1 hour. Cells were washed 1x with washing buffer (0,1 mg/ml saponin + 1 mg/ml Bovine serum albumin) using a Blue Washer (Blue Cat Bio). Mouse anti-human ADPN (PNPLA3, C-8, #sc-390252, Santa Cruz) and rabbit anti-human PNPLA2 (Sigma Aldrich, #HPA055173-25UL) primary antibodies and appropriate secondary antibodies conjugated with Alexa-Fluor 647 (Jackson ImmunoResearch) were used. All antibodies were diluted in 0.1 mg/ml Saponin + 1 mg/ml Bovine serum albumin. Incubation with primary antibodies was over night at 4°C. Cells were stained simultaneously with the secondary antibody and Hoechst 33342 (final 2 μg/ml, Biotium) for 1h at room temperature in the dark. For Staining of lipid droplets 38 nM BODIPY was used for 30 minutes at room temperature.
Images were acquired by an Opera Phenix confocal spinning disc microscope system (Revvity, Waltham, MA, USA) with a 20x or 40x water objective at 405 nm (Hoechst), 488 nm (BODIPY) and 647 nm. Quantification was carried out with the Harmony (Revvity, Waltham, MA, USA) or MetaXpress software (Molecular Devices). Normalization, quality control, and fitting curves for EC50 determination of tested compounds were performed with Genedata Screener® for high-content screening and Genedata Condoseo modules (Genedata AG, Basel, Switzerland).

- ΔTm PNPLA3 I148M [1]: 5.82 °C
- effect on melting curve of PNPLA2 protein [2]: did not affect the melting curve
- effect on PNPLA2 staining on lipid droplets ([4]; 1μM, Huh7): no effect
- EC50 ([4]; HTS batch (hit)): > 18 µM
- effect on PNPLA2 localization to lipid droplets ([4]; Huh7 cells, dose-response): no effect
- EC50 ([4]; resynthesis batch): > 17 µM
- EC50 Huh7 PNPLA2 IF (resynthesis) ([4]; resynthesis batch, result in words): no activity
Compound: Cc1cccc(Cc2nc(C)c(C(=O)Nc3cc(O)ccc3Cl)s2)c1 [NUV-244]
- effect on proliferative capacity, Hep3B [3]: no effects
